The test has as its system human pancreatic cancer cells (MIA PaCa-2). The experiment in a line: Tumor growth inhibition in subcutaneous xenograft model, MIA PaCa-2. The class given is in vivo, mouse. As to conditions: s.c. xenograft in athymic nude mice; i.v. 1-5 mg/kg, once/week or twice/week for 1-3 weeks; vs vehicle control, p<0.05; FIG. 1. Here is the method:
The efficacy of compounds 2 and 11 in inhibiting the growth of human pancreatic cancer cells (MIA PaCa-2) and the efficacy of compounds 1-4, 23, 25, and 26 in inhibiting the growth of human triple-negative breast cancer cells (HCC1806) were assessed as follows.
Male and female athymic NU-Fox1^nu nude mice (BioLASCO, Taiwan) at age 4-5 weeks were housed in sterilized cages equipped with an air filter and sterile bedding materials at the Laboratory Animal Center of the National Health Research Institutes (NHRI), which is an AAALAC International accredited facility. All the mice were fed with sterilized water and chow ad libitum under 12-hr light/12-hr dark cycle throughout the study. […]
The MIA PaCa-2 and HCC1806 cells were suspended in phenol-red-free culture medium/Matrigel™ (1/1) and implanted subcutaneously (s.c.) into the left flank of the nude mice (1×10^6 cells/flank) via a 1 mL syringe. Tumor dimensions were measured twice a week using a digital caliper and the tumor volume (mm^3) was calculated based on the formula, i.e., volume=(length×width^2)/2.
Tumor-bearing mice were randomized (n=7-8 per group) when the average tumor volume reached approximately 200 mm^3. […] Tumor size and body weight of each animal were measured twice a week. Data was expressed as the mean or mean±standard error of the mean (SEM). […]

The values below come from patent US11878986B2, “Poly heterocyclic conjugates and their pharmaceutical uses” (National Health Research Institutes, priority 2020, dated 2024).

In the case of `CCCCCC(=O)Nc1cccc(CN(Cc2cc(CN(Cc3ccccn3)Cc3cccc(NC(=O)CCCCC)n3)cc(OCCCCN(Cc3ccc(-c4ccccc4)cc3)C(=O)COCCOCCOCC(=O)NCc3ccc(CNC(=O)CCSSCCC(=O)N(C)[C@H](C)C(=O)O[C@@H]4CC(=O)N(C)c5cc(cc(OC)c5Cl)C/C(C)=C/C=C/[C@H](OC)[C@]5(O)C[C@@H](OC(=O)N5)[C@H](C)[C@H]5O[C@]54C)cc3)c2)Cc2ccccn2)n1` [Compound 2], the “inhibition of the growth of MIA PaCa-2 (tumor volume)” value was “significantly inhibited the growth”. With `CCCCCC(=O)Nc1cccc(CN(Cc2cc(CN(Cc3ccccn3)Cc3cccc(NC(=O)CCCCC)n3)cc(OCCCCNC(=O)COCCOCCOCC(=O)NCc3ccc(CNC(=O)CCSSCCC(=O)N(C)[C@H](C)C(=O)O[C@@H]4CC(=O)N(C)c5cc(cc(OC)c5Cl)C/C(C)=C/C=C/[C@H](OC)[C@]5(O)C[C@H](OC(=O)N5)[C@H](C)C5O[C@@]54C)cc3)c2)Cc2ccccn2)n1` (some centres unmarked) [Compound 11], the “inhibition of the growth of MIA PaCa-2 (tumor volume)” value is given as “significantly inhibited the growth”.
